Experimental findings from article PMC8894198, “Biosynthetic Microcin J25 Exerts Strong Antibacterial, Anti-Inflammatory Activities, Low Cytotoxicity Without Increasing Drug-Resistance to Bacteria Target” (Frontiers in Immunology, 2022) are described below.

≈ marks a conversion by molar mass, not a printed value. Where a SMILES comes first, the peptide text is derived from it. Bridges are numbered along the chain shown (N, C = ends).

The subject of one test is S. pullorum CVCC1791. Description: MIC broth dilution, standard strain. It is filed as cell-based, Salmonella pullorum. The following applies: lowest MIC value, highly sensitive standard strain. The procedure: (§1) The minimum inhibitory concentration (MIC) refers to the lowest concentration that can produce a significant hindrance to bacterial growth in a drug sensitivity test by adopting a broth dilution, with certain refinements and modifications based on the previous description ([25], [26]). In short, MccJ25 was dissolved in sterilized distilled water (SDW), serial 2-fold dilutions were prepared in Mueller-Hinton broth (MHB) through a 96-well microtiter plate, and the final concentration of MccJ25 was maintained in the range of 0.003125 to 256 μg/mL. Then, 2 μL of standard and clinically relevant overnight broth cultures of bacteria were inoculated into each well at a concentration of 5 × 10^6 CFU/mL. Microtiter plates were incubated at 37°C for one full day. Two groups were set up: positive (medium with inoculum) and negative (medium only) controls. The minimum bactericidal concentration (MBC) was measured in LB medium and refers to the first drug dilution value at which the initial bacterial concentration was reduced by 99.99%. The final analysis was determined by the results of three replicated and independent experiments. To further assess and clarify the antimicrobial activity of MccJ25, the protective ability against E. coli adhesion, live/dead assay, and killing curve were performed, the detailed methods were provided in Supplementary Materials .
(In general: Dilution methods test growth across graded concentrations, often in twofold steps.)

The subject of a further test is E. coli SWI 441. Nature of the test: MIC/MBC, clinical isolate resistant to colistin sulfate, lincomycin and tilmicosin. It is filed as cell-based. The following applies: source pig stool. The procedure:
as §1

Another test relates to E. coli SWI 541. Described as above. It is filed as cell-based. Particulars: source pig stool. The procedure: as §1
For another test, the system named is E. coli SWI 531. The test is described as above. The following applies: source pig tissue. Format: cell-based. How it is done:
as §1

The subject of a further test is E. coli BRO 528. The test is described as above. Format: cell-based. Particulars: source broiler stool. The procedure:
as §1

Another test deals with E. coli K88. Description: MIC variability (cross-resistance) after 5 days at sub-MIC. The following applies: bacterial cells treated with MccJ25 (0.25 × MIC) for 5 days. Format: cell-based. How it is done:
A 1:100 dilution of the bacteria was performed daily in the above MHB. Aliquots of the culture medium were used daily for 5 days thereafter to determine the MICs of ampicillin, tetracycline, aureomycin, and kanamycin. This study was performed based on our previous study ([29]).

For a further test, the system named is RAW 264.7 cells. Nature of the test: LPS-induced inflammation in macrophages. Format: cell-based, mouse. The procedure:
The mouse macrophage cell line RAW 264.7 was obtained in our lab and stored in liquid nitrogen. Cells were cultured in DMEM supplemented with 1% antibiotics (100 U/mL penicillin and 100 µg/mL streptomycin) with 20% FBS at 37°C and 5% CO2. Cells were transferred and inoculated in 12-well plates (1 × 10^4 cells/well) and cultured for 24 h.
RAW 264.7 cells (approximately 2 × 10^4 cells/well) were cultured with 1 µg/mL E. coli LPS for 3 h at 37°C in the absence (control) or presence of 1 μg/mL MccJ25 at 5% CO2. The cells and cell culture supernatants were then collected. Culture supernatant mixed with Griess reagent (1:1) and incubated for 15 min at room temperature. A microplate reader was used to measure […] (NO) at 540 nm. The changes in induced NO levels were clarified based on the comparison between the values of the treated and control groups. Each experiment was repeated three times.
The concentrations of tumor necrosis factor-α (TNF-α), interleukin-6 (IL-6), IL-4, interferon (IFN)-γ, and nitric oxide (NO) in serum were measured. In addition, TNF-α and NO levels were also measured in the supernatant of RAW264.7 cells. ELISA was performed using a commercial ELISA kit (eBioscience, San Diego, USA). LPS levels in plasma were analyzed using the QCL-1000 kit (Xiamen, China) based on the manufacturer’s standards. On the day of sacrifice, eyes were extracted with ethylenediaminetetraacetic acid (EDTA), and blood was collected into clean test tubes. Peripheral hemograms and white blood cells (WBCs) were analyzed using a Coulter LH755 hematology analyzer. The levels of serum D-lactate were measured using ELISA kit (Jiancheng, Nanjing, China) according to the manufacturer’s protocols.
The extent and mRNA expression levels of TNF-α, IL-6, IL-10, IL-1β, IFN-γ, and TLR4, and NF-κB in each body part of the jejunum, ileum, colon, and spleen and in RAW264.7 cells were clarified by RT–PCR as previously described ([31]). Primers for TNF-α, IL-6, IL-10, IL-1β, IFN-γ, TLR4, and NF-κB are described in Table S1 . […] Combined with gel electrophoresis and a NanoDrop 2000 spectrophotometer (Thermo Fisher Scientific, Wilmington, DE), the quality and quantity of total RNA were determined. […]
Frozen tissue samples and fresh cells were homogenized in RIPA lysis buffer containing protease inhibitors (Applygen, Beijing, China). Protein levels were determined using a BCA protein assay kit (Thermo Fisher Scientific, Rockford, IL). […] Chemofluorescence was detected using the ImageQuant LAS 4000 mini system (GE Healthcare Biosciences AB, Inc., Sweden) with Western Blot Luminance Reagent (Applygen, Beijing, China), and the membranes were cleaned with an ImageQuant TL (GE Healthcare Life Science) gel imaging system for quantification.

The mark [1] stands for this setting: LB medium, 99.99% reduction, three independent experiments.
[2] abbreviates: broth dilution in MHB, 37°C, three independent experiments.

Broadly, the MIC is the lowest concentration that inhibits growth of the organism. The low end stands for inhibition by little substance, the high end for a need for much substance. What is called MBC is the lowest tested concentration that kills the bacteria rather than only halting them. High values mean less potent killing, low ones more potent killing. On to `CC[C@H](C)[C@H](NC(=O)CNC(=O)[C@@H](NC(=O)[C@H](Cc1ccccc1)NC(=O)[C@H](Cc1ccc(O)cc1)NC(=O)[C@@H]1CCC(=O)NCC(=O)NCC(=O)N[C@@H](C)C(=O)NCC(=O)N[C@@H](Cc2c[nH]cn2)C(=O)N[C@@H](C(C)C)C(=O)N2CCC[C@H]2C(=O)N1)C(C)C)C(=O)NCC(=O)N[C@H](C(=O)N1CCC[C@H]1C(=O)N[C@H](C(=O)N[C@@H](CO)C(=O)N[C@@H](Cc1ccccc1)C(=O)N[C@@H](Cc1ccc(O)cc1)C(=O)NCC(=O)O)[C@@H](C)CC)[C@@H](C)O` [MccJ25, microcin J25] (GGAGHVPEYFVGIGTPISFYG-OH; lactam N-8 (inferred); C-terminus assumed), for which the MIC was 0.03 µg/mL (≈ 0.0142 µM) with S. pullorum CVCC1791; 0.060 µg/mL (≈ 0.0285 µM) against E. coli SWI 441 (setting [2]); 0.500 µg/mL (≈ 0.237 µM) with E. coli SWI 541 (setting [2]); 0.060 µg/mL (≈ 0.0285 µM) against E. coli SWI 531 (setting [2]); 0.500 µg/mL (≈ 0.237 µM) with E. coli BRO 528 (setting [2]). Moreover, the minimal bactericidal concentration (MBC) against E. coli SWI 441 (setting [1]) turned out to be 0.500 µg/mL (≈ 0.237 µM); against E. coli SWI 541 (setting [1]), 2.000 µg/mL (≈ 0.949 µM); against E. coli SWI 531 (setting [1]) it was 0.500 µg/mL (≈ 0.237 µM); in the test on E. coli BRO 528 (setting [1]), 2.000 µg/mL (≈ 0.949 µM). In addition, the MIC/MBC is on record as 0.120 in the test with E. coli SWI 441 (ratio), 0.250 with E. coli SWI 541 (ratio), 0.120 with E. coli SWI 531 (ratio) and 0.250 in the test on E. coli BRO 528 (ratio). Moreover, the “change in the MICs of ciprofloxacin, ampicillin, tetracycline and kanamycin” value in the test with E. coli K88 is listed as “no changes were observed”. Besides, in the test on RAW 264.7 cells (LPS 1 µg/mL, MccJ25 1 µg/mL), the “LPS-stimulated expression of TNF-α and TLR-4 (RT-PCR)” value is “this stimulatory effect was inhibited”. Besides, the “LPS-induced TNF-α and NO secretion” value with RAW 264.7 cells (LPS 1 µg/mL, MccJ25 1 µg/mL, 3 h) was “this increase in secretion was alleviated”. The “MyD88, TLR4, TNF-α and IL-6 protein expression” value in the test on RAW 264.7 cells (western blot, after LPS challenge) is reported as “sharply decreased”. In the test on RAW 264.7 cells (western blot, after LPS challenge for 3 h), the “p-NF-κB and MyD88 protein expression” value is “significantly decreased”.
